According to ChEMBL document CHEMBL5608141, “Identification of compartment-specific drug sensitivities in CRC organoid-stroma co-cultures” (2024):

Legend:
Assay type in all cases: functional, Homo sapiens
Parameters in all cases: dose or concentration left out as unconfirmed
Colon cancer organoid [1] = assay: Identification of compartment-specific drug sensitivities in O20 CRC organoid-stroma F20 CAF co-cultures. Organoid is transduced with Lucferase2-P2A-EGFP lentivirus, fibroblast with Renilla-dsRed lentivirus. Dual-Glo Luciferase assay is used to report viability data.
Colon cancer organoid [2] = assay: Identification of compartment-specific drug sensitivities in O06 CRC organoid-stroma F06 CAF co-cultures. Organoid is transduced with Lucferase2-P2A-EGFP lentivirus, fibroblast with Renilla-dsRed lentivirus. Dual-Glo Luciferase assay is used to report viability data.
Colon cancer organoid [3] = assay: Identification of compartment-specific drug sensitivities in O14 CRC organoid-stroma F14 CAF co-cultures. Organoid is transduced with Lucferase2-P2A-EGFP lentivirus, fibroblast with Renilla-dsRed lentivirus. Dual-Glo Luciferase assay is used to report viability data.
[4] = Transduced with Lucferase2-P2A-EGFP lentivirus
[5] = Transduced with Renilla-dsRed lentivirus

| Structure (SMILES) | Cell Viability (Colon cancer organoid [1]; [4]) [%] | Cell Viability (Colon cancer organoid [1]; [5]) [%] | Cell Viability (Colon cancer organoid [2]; [4]) [%] | Cell Viability (Colon cancer organoid [2]; [5]) [%] | Cell Viability (Colon cancer organoid [3]; [4]) [%] | Cell Viability (Colon cancer organoid [3]; [5]) [%] |
| --- | --- | --- | --- | --- | --- | --- |
| COc1cccc(CNC(=O)c2nc3scc(CN(C)Cc4ccccc4)c3c(=O)[nH]2)c1 [T-26f] | 156.545 | 109.586 | 112.096 | 76.7347 | 126.414 | 118.487 |
| O[C@H]1CC[C@H](Nc2ncc3nc(Nc4c(F)cc(F)cc4F)n([C@H]4CCOC4)c3n2)CC1 [TANZISERTIB] | 128.622 | 97.8883 | 96.802 | 109.826 | 133.231 | 127.243 |
| Cc1nc(-c2cn3c(n2)-c2ccc(-c4cnn(C(C)(C)C(N)=O)c4)cc2OCC3)n(C(C)C)n1 [TASELISIB] | 15.8824 | 146.008 | 42.3556 | 62.2904 | 38.4959 | 67.2929 |
| COc1cccc2c1c(O)c(C(=O)N(C)c1ccc(C(F)(F)F)cc1)c(=O)n2C [TASQUINIMOD] | 64.5374 | 99.9703 | 78.5663 | 130.265 | 112.754 | 82.8858 |
| C[C@@H]1CCN(C(=O)CC#N)C[C@@H]1N(C)c1ncnc2[nH]ccc12.O=C(O)CC(O)(CC(=O)O)C(=O)O [TOFACITINIB CITRATE] | 113.321 | 86.9545 | 105.115 | 91.9737 | 83.3835 | 105.446 |
| CCC(=O)N1CCN(c2ccc(-n3c(=O)ccc4cnc5ccc(-c6cnc7ccccc7c6)cc5c43)cc2C(F)(F)F)CC1 [TORIN1] | 7.451 | 44.8651 | 4.705 | 40.1911 | 10.1866 | 12.2493 |
| Cc1cnc(-c2cc(Cl)ccc2F)cc1-n1c(=O)n(CC(N)=O)c2cnccc21 [TP-008] | 64.1266 | 114.054 | 13.7504 | 213.932 | 74.2388 | 68.4272 |
| Cn1nc(C(F)(F)F)cc1-c1cnc(N2CCc3cc(S(=O)(=O)Nc4c(F)cc(Cl)cc4F)cc(N4CCCC4=O)c32)nc1 [TP-020] | 86.7802 | 95.2287 | 69.3758 | 110.898 | 113.877 | 116.294 |
| Cc1cc(-n2nc(Cc3cc(F)cc(C(F)(F)F)c3)nc2C)ccc1C(N)=O [TP-024] | 120.055 | 118.791 | 115.389 | 121.941 | 124.645 | 106.61 |
| CC1CCN(c2ccnc(NCc3cn(C)cn3)n2)CC1 [TP-040] | 75.5826 | 95.0735 | 104.895 | 163.738 | 70.4837 | 82.5883 |
| CN1CCN(c2ccnc(NCCc3ccccc3)n2)CC1 [TP-040n] | 67.1911 | 97.5889 | 57.9985 | 123.721 | 106.261 | 101.91 |
| CC(=O)Nc1cccc(-n2c(=O)n(C3CC3)c(=O)c3c(Nc4ccc(I)cc4F)n(C)c(=O)c(C)c32)c1 [TRAMETINIB] | 2.051 | 46.1337 | 4.775 | 48.8246 | 7.5472 | 16.7625 |
| Cc1ccc2[nH]c(CNCCCc3ccncc3)cc(=O)c2c1 [UCSF924NC] | 121.808 | 109.302 | 92.2965 | 82.507 | 107.168 | 100.112 |
| Cc1ccc2nc(CNCCCOc3ccccc3)cc(O)c2c1 [UCSF924] | 115.834 | 125.381 | 107.729 | 156.395 | 102.025 | 95.7371 |
| CC(C)Oc1ccc(-c2nn([C@@H](C)c3oc4ccc(F)cc4c(=O)c3-c3cccc(F)c3)c3ncnc(N)c23)cc1F [UMBRALISIB] | 103.314 | 87.858 | 96.678 | 112.425 | 161.449 | 91.4949 |
| CC[C@@H]1CN(C(=O)NCC(F)(F)F)C[C@@H]1c1cnc2cnc3[nH]ccc3n12 [UPADACITINIB] | 123.879 | 83.5298 | 104.182 | 86.3482 | 147.848 | 94.1248 |
| CNC(=O)c1ccccc1Nc1cc(Nc2ccc(N3CCOCC3)cc2OC)ncc1C(F)(F)F [VS-4718] | 13.9942 | 72.4438 | 52.8737 | 57.2971 | 18.7172 | 41.7282 |
| O=C(NNS(=O)(=O)c1ccccc1F)c1cc(F)cc(-c2ccccn2)c1 [WM-1119] | 69.0433 | 152.012 | 97.0333 | 108.11 | 29.5498 | 87.8305 |
| O=C(NNS(=O)(=O)c1ccccc1)c1cc(-c2ccnnc2)ccc1F [WM-2474] | 104.944 | 126.08 | 92.1572 | 93.3483 | 98.8891 | 109.079 |
| C=CC(=O)N1CCC([C@@H]2CCNc3c(C(N)=O)c(-c4ccc(Oc5ccccc5)cc4)nn32)CC1 [ZANUBRUTINIB] | 8.4337 | 202.782 | 36.1998 | 136.235 | 25.5759 | 117.13 |
| Nc1nc(NCc2ccccc2)nc(-c2cccc(CO)c2)n1 [ZINC32547799] | 125.25 | 66.6285 | 97.3324 | 116.001 | 98.7801 | 87.8082 |
| FC(F)c1nc2ccccc2n1-c1nc(N2CCOCC2)nc(N2CCOCC2)n1 [ZSTK-474] | 124.253 | 95.7276 | 29.4296 | 101.088 | 72.7664 | 74.8211 |
